In US12268690B2, “Treatments for mutations in acute myeloid leukemia” (OREGON HEALTH & SCIENCE UNIVERSITY, priority 2018, dated 2025):

System: freshly isolated mononuclear cells from AML samples
Test: Ex vivo functional drug screen (MTS viability, AUC) on primary AML samples, compared by mutation or clinical group
Assay type: cell-based, human
Source text: This panel contained graded concentrations of a drugs with activity against two-thirds of the tyrosine kinome as well as other non-tyrosine kinase pathways, including MAPKs, PI3K/AKT/mTOR, AMPK, ATM, Aurora kinases, CAMKs, CDKs, GSK3a/b, IκK, PKA, PKC, PLK1, and RAF. In addition, the library contained small molecule inhibitors with activity against the BCL2 family, BRD4, Hedgehog, HSP90, NOTCH/gamma-secretase, proteasome, survivin, STAT3, and WNT/beta-catenin. Drug sensitivity patterns were analyzed with respect to clinical and genetic features of tumors. We compared the average area-under-the curve (AUC) values for each drug between the de novo and transformed samples via a series of single factor ANOVAs. […] In addition, we analyzed the concordance of drug sensitivity patterns with respect to predicted target gene, gene family, or pathway for each drug. […] To create a global view of overall sensitivity or resistance of each case, we generated a heatmap of binary sensitive/resistant calls for each sample to each drug.
Correlation of drug sensitivity with mutational events was performed by assessing the range of sensitivity of cases with mutation of an individual gene (as well as co-occurring mutational events) versus cases with wild type sequence for that same gene. […] The difference in average drug sensitivity of mutant versus wild type cases for each drug/mutation pair was plotted on the horizontal axis of a volcano plot with a test for statistical significance of the comparison plotted on the vertical axis (corrected for multiple comparison false discovery rate^42; FIG. 4). […] To aid in discovery of potential mutational biomarkers of drug sensitivity, we plotted volcano plots that were specific to each individual drug (versus all possible mutational events) and for each individual gene (versus all possible drugs tested).
Ex vivo drug screens were performed on freshly isolated mononuclear cells from AML samples as previously described^41.
Ex vivo functional drug screens were performed on freshly isolated mononuclear cells from AML samples. […] Drug plates were created using inhibitors purchased from LC Laboratories and Selleck Chemicals and master stocks were reconstituted in DMSO and stored at −80° C. […] DMSO control wells and positive control wells containing a drug combination of Flavopiridol, Staurosporine and Velcade were placed on each plate, with the final concentration of DMSO ≤0.1% in all wells. Daughter plates were created using a V&P Scientific 384-well pin tool head operated by the Caliper Sciclone ALH 3000 and equipped with 0.457 mm diameter, 30 nanoliter, slotted stainless steel pins (cat num: FP1NS30). Daughter and destination plates were sealed with pealable thermal seals using a PlateLoc thermal sealer. Destination plates were stored at −20° C. for no more than three months and thawed immediately before use. Primary mononuclear cells were plated across single-agent inhibitor panels within 24 h of collection. […] After 3 d of culture at 37° C. in 5% CO2, MTS reagent (CellTiter96 AQueous One; Promega) was added, optical density was measured at 490 nm, and raw absorbance values were adjusted to a reference blank value and then used to determine cell viability (normalized to untreated control wells).
A given sample was run on one or more panels and within each panel, the majority of drugs were run without within-panel replicates. […] An additional set of ‘curve-free’ AUCs was computed for sample-inhibitor pairs run on multiple panels.
Based on the methodology used in our prior drug combination study^36, a probit regression was fit to all possible run groups using the model: (normalized_viability/100)˜1+log 10(concentration) Where for all groups there were N=7 dose-response measurements. The summary measures of curve fit were inspected and cutoffs were devised removing all runs with an AIC >12 and deviance >2.

[1] = BCOR mutation alone or co-mutation of BCOR with DNMT3A or SRSF2

Cc1[nH]c(/C=C2\C(=O)Nc3ccc(S(=O)(=O)Cc4c(Cl)cccc4Cl)cc32)c(C)c1C(=O)N1CCC[C@@H]1CN1CCCC1 [PHA-665752]
drug sensitivity mutant vs wild type (average difference in AUC; top left quadrant of volcano plot) (IDH2): PHA-665752

COc1cc2c(Oc3ccc4[nH]c(C)cc4c3F)ncnc2cc1OCCCN1CCCC1 [Cediranib]
drug sensitivity mutant vs wild type (average difference in AUC; top left quadrant of volcano plot) (FLT3_ITD:RUNX1): cediranib | drug sensitivity mutant vs wild type (average difference in AUC; top left quadrant of volcano plot) (RUNX1): Cediranib | drug sensitivity mutant vs wild type (average difference in AUC; top left quadrant of volcano plot) (U2AF1): Cediranib (AZD2171) | correlation of mutation with drug sensitivity (mutation of RUNX1): correlated with sensitivity

Cn1cc(-c2ccc3nnc(C(F)(F)c4ccc5ncccc5c4)n3n2)cn1 [JNJ-38877605]
drug sensitivity mutant vs wild type (average difference in AUC; top left quadrant of volcano plot) (BCOR:RUNX1): JNJ-38877605

CNC(=O)c1c(F)cccc1Nc1nc(Nc2cc3c(cc2OC)CCN3C(=O)CN(C)C)nc2[nH]ccc12 [GSK-1838705A]
drug sensitivity mutant vs wild type (average difference in AUC; top left quadrant of volcano plot) (IDH2): GSK-1838705A | drug sensitivity mutant vs wild type (average difference in AUC; top left quadrant of volcano plot) (NPM1:IDH2): GSK-1838705A | drug sensitivity mutant vs wild type (average difference in AUC; top left quadrant of volcano plot) (NPM1:SRSF2): GSK-183705A | drug sensitivity mutant vs wild type (average difference in AUC; top left quadrant of volcano plot) (SMC1A): GSK-1838705A | drug sensitivity mutant vs wild type (average difference in AUC; top left quadrant of volcano plot) (SRSF2:IDH2): GSK-1838705A

CNC(=O)c1cc(Oc2ccc(NC(=O)Nc3ccc(Cl)c(C(F)(F)F)c3)c(F)c2)ccn1 [Regorafenib]
drug sensitivity mutant vs wild type (average difference in AUC; top left quadrant of volcano plot) (FLT3_ITD): regorafenib | drug sensitivity mutant vs wild type (average difference in AUC; top left quadrant of volcano plot) (NPM1): Regorafenib | drug sensitivity mutant vs wild type (average difference in AUC; top left quadrant of volcano plot) (NPM1:DNMT3A): Regorafenib | drug sensitivity mutant vs wild type (average difference in AUC; top left quadrant of volcano plot) (NPM1:FLT3_ITD): regorafenib | drug sensitivity mutant vs wild type (average difference in AUC; top left quadrant of volcano plot) (NPM1:FLT3_ITD:DNMT3A): regorafenib | drug sensitivity mutant vs wild type (average difference in AUC; top left quadrant of volcano plot) (NPM1:IDH2): regorafenib | drug sensitivity mutant vs wild type (average difference in AUC; top left quadrant of volcano plot) (NPM1:SRSF2): regorafenib | drug sensitivity mutant vs wild type (average difference in AUC; top left quadrant of volcano plot) (NPM1:TET2: DNMT3A): Regorafenib

O=c1ncn2nc(Sc3ccc(F)cc3F)ccc2c1-c1c(Cl)cccc1Cl [vx-745]
drug sensitivity mutant vs wild type (average difference in AUC; top left quadrant of volcano plot) (FLT3_ITD): vx-745 | drug sensitivity mutant vs wild type (average difference in AUC; top left quadrant of volcano plot) (FLT3_ITD:ASXL1): vx-745 | drug sensitivity mutant vs wild type (average difference in AUC; top left quadrant of volcano plot) (NPM1:IDH2): vx- | drug sensitivity mutant vs wild type (average difference in AUC; top left quadrant of volcano plot) (NPM1:SRSF2): vx-745

C[C@@H]1CCN(C(=O)CC#N)C[C@@H]1N(C)c1ncnc2[nH]ccc12 [Tofacitinib]
sensitivity to JAK kinase inhibitors, mutant versus wild type (average AUC difference, one-way ANOVA) [1]: no difference in sensitivity | drug sensitivity mutant vs wild type (average difference in AUC; top left quadrant of volcano plot) (ZRSR2): Tofacitinib | sensitivity to JAK kinase inhibitors, mutant versus wild type (average AUC difference, one-way ANOVA) (co-mutation of BCOR with RUNX1): increased sensitivity

CS(=O)(=O)c1ccc(C(=O)Nc2ccc(Cl)c(-c3ccccn3)c2)c(Cl)c1 [Vismodegib]
drug sensitivity mutant vs wild type (average difference in AUC; top left quadrant of volcano plot) (WT1): Vismodegib

CCCS(=O)(=O)Nc1ccc(F)c(C(=O)c2c[nH]c3ncc(Cl)cc23)c1F [PLX-4720, N-(3-(5-chloro-1H-pyrrolo[2,3-b]pyridine-3-carbonyl)-2,4-difluorophenyl)propane-1-sulfonamide]
drug sensitivity mutant vs wild type (average difference in AUC; top left quadrant of volcano plot) (CBFB.MYH11): PLX-4720

CC1(COc2ccc3c(c2)ncn3-c2ccc3cccc(N4CCC(N)CC4)c3n2)COC1 [Crenolanib]
drug sensitivity mutant vs wild type (average difference in AUC; top left quadrant of volcano plot) (CBFB.MYH11): Crenolanib | drug sensitivity mutant vs wild type (average difference in AUC; top left quadrant of volcano plot) (DNMT3A:FLT3): Crenolanib | drug sensitivity mutant vs wild type (average difference in AUC; top left quadrant of volcano plot) (NPM1): crenolanib | drug sensitivity mutant vs wild type (average difference in AUC; top left quadrant of volcano plot) (NPM1:DNMT3A): Crenolanib

COc1cc2nccc(Oc3ccc(NC(=O)Nc4cc(C)on4)c(Cl)c3)c2cc1OC [Tivozanib]
drug sensitivity mutant vs wild type (average difference in AUC; top left quadrant of volcano plot) (CELSR2): Tivozanib (AV-951) | drug sensitivity mutant vs wild type (average difference in AUC; top left quadrant of volcano plot) (FLT3_ITD): tivozanib | drug sensitivity mutant vs wild type (average difference in AUC; top left quadrant of volcano plot) (NPM1): Tivozanib | drug sensitivity mutant vs wild type (average difference in AUC; top left quadrant of volcano plot) (NPM1:FLT3_ITD): Tivozanib | drug sensitivity mutant vs wild type (average difference in AUC; top left quadrant of volcano plot) (NPM1:FLT3_ITD:DNMT3A): tivozanib

Cn1cc(-c2ccc3nnc(Sc4ccc5ncccc5c4)n3n2)cn1 [SGX-523, 6-((6-(1-methyl-1H-pyrazol-4-yl)-[1,2,4]triazolo[4,3-b]pyridazin-3-yl)thio)quinoline]
drug sensitivity mutant vs wild type (average difference in AUC; top left quadrant of volcano plot) (NPM1:CEBPA): SGX-523 | drug sensitivity mutant vs wild type (average difference in AUC; top left quadrant of volcano plot) (NPM1:IDH2): SGX-523 | drug sensitivity mutant vs wild type (average difference in AUC; top left quadrant of volcano plot) (NPM1:SRSF2): SGX-523 | drug sensitivity mutant vs wild type (average difference in AUC; top left quadrant of volcano plot) (NPM1:SRSF2:IDH2): SGX-523

Clc1ccc(Nc2nnc(Cc3ccncc3)c3ccccc23)cc1 [Vatalanib]
drug sensitivity mutant vs wild type (average difference in AUC; top left quadrant of volcano plot) (FLT3_ITD): vatalanib | drug sensitivity mutant vs wild type (average difference in AUC; top left quadrant of volcano plot) (FLT3_ITD:ASXL1): vatalanib | drug sensitivity mutant vs wild type (average difference in AUC; top left quadrant of volcano plot) (MLLT3.KMT2A): Vatalanib | drug sensitivity mutant vs wild type (average difference in AUC; top left quadrant of volcano plot) (NPM1:FLT3_ITD): vatalanib | drug sensitivity mutant vs wild type (average difference in AUC; top left quadrant of volcano plot) (SMC1A): Vatalanib

CC(C)n1nc(-c2ccc3oc(N)nc3c2)c2c(N)ncnc21 [INK-128]
drug sensitivity mutant vs wild type (average difference in AUC; top left quadrant of volcano plot) (FLT3_ITD): INK-128 | drug sensitivity mutant vs wild type (average difference in AUC; top left quadrant of volcano plot) (NPM1:FLT3_ITD): ink-128

CC(C)(C)c1cnc(CSc2cnc(NC(=O)C3CCNCC3)s2)o1 [SNS-032]
drug sensitivity mutant vs wild type (average difference in AUC; top left quadrant of volcano plot) (ASXL1): SNS-032 (BMS-387032) | drug sensitivity mutant vs wild type (average difference in AUC; top left quadrant of volcano plot) (NPM1): SNS-032

CN(NC(=O)CC(=O)NN(C)C(=S)c1ccccc1)C(=S)c1ccccc1 [elesclemol]
drug sensitivity of mutant cases (TP53 mutant cases): trended more sensitive

COc1cc2ncnc(Nc3ccc(F)c(Cl)c3)c2cc1OCCCN1CCOCC1 [Gefitinib]
drug sensitivity mutant vs wild type (average difference in AUC; top left quadrant of volcano plot) (FLT3_ITD): gefitinib | drug sensitivity mutant vs wild type (average difference in AUC; top left quadrant of volcano plot) (FLT3_ITD:SRSF2): Gefitinib | drug sensitivity mutant vs wild type (average difference in AUC; top left quadrant of volcano plot) (FLT3_ITD_IHD2): gefitinib | drug sensitivity mutant vs wild type (average difference in AUC; top left quadrant of volcano plot) (NPM1): Gefitinib | drug sensitivity mutant vs wild type (average difference in AUC; top left quadrant of volcano plot) (NPM1:DNMT3A): Gefitinib | drug sensitivity mutant vs wild type (average difference in AUC; top left quadrant of volcano plot) (NPM1:FLT3_ITD): gefitinib | drug sensitivity mutant vs wild type (average difference in AUC; top left quadrant of volcano plot) (NPM1:FLT3_ITD:DNMT3A): gefitinib | drug sensitivity mutant vs wild type (average difference in AUC; top left quadrant of volcano plot) (NPM1:IDH2): gefitinib | drug sensitivity mutant vs wild type (average difference in AUC; top left quadrant of volcano plot) (NPM1:SRSF2): gefitinib

Cc1cc(Nc2cc(N3CCN(C)CC3)nc(Sc3ccc(NC(=O)C4CC4)cc3)n2)[nH]n1 [Tozasertib]
drug sensitivity mutant vs wild type (average difference in AUC; top left quadrant of volcano plot) (FLT3_ITD): Tozasertib | drug sensitivity mutant vs wild type (average difference in AUC; top left quadrant of volcano plot) (FLT3_ITD:DNMT3A): tozasertib | drug sensitivity mutant vs wild type (average difference in AUC; top left quadrant of volcano plot) (FLT3_ITD_IHD2): tozasertib | drug sensitivity mutant vs wild type (average difference in AUC; top left quadrant of volcano plot) (IDH2): Tozasertib | drug sensitivity mutant vs wild type (average difference in AUC; top left quadrant of volcano plot) (NPM1:FLT3_ITD:DNMT3A): tozasertib | drug sensitivity mutant vs wild type (average difference in AUC; top left quadrant of volcano plot) (NPM1:SRSF2): Tozasertib

CCn1c(-c2nonc2N)nc2c(C#CC(C)(C)O)ncc(OC[C@H]3CCCNC3)c21 [GSK690693]
drug sensitivity mutant vs wild type (average difference in AUC; top left quadrant of volcano plot) (MLLT3.KMT2A): GSK690693

N#CCNC(=O)c1ccc(-c2ccnc(Nc3ccc(N4CCOCC4)cc3)n2)cc1 [cyt387]
sensitivity to JAK kinase inhibitors, mutant versus wild type (average AUC difference, one-way ANOVA) [1]: no difference in sensitivity | drug sensitivity mutant vs wild type (average difference in AUC; top left quadrant of volcano plot) (FLT3_ITD): cyt387 | drug sensitivity mutant vs wild type (average difference in AUC; top left quadrant of volcano plot) (NPM1:FLT3_ITD): cyt387 | sensitivity to JAK kinase inhibitors, mutant versus wild type (average AUC difference, one-way ANOVA) (co-mutation of BCOR with RUNX1): increased sensitivity

JAK Inhibitor I
sensitivity to JAK kinase inhibitors, mutant versus wild type (average AUC difference, one-way ANOVA) [1]: no difference in sensitivity | sensitivity to JAK kinase inhibitors, mutant versus wild type (average AUC difference, one-way ANOVA) (co-mutation of BCOR with RUNX1): increased sensitivity
